We go through 5 compounds from ChEMBL document CHEMBL1201862, “PubChem BioAssay data set” (2004).

Assay in all cases: DTP human tumour cell line panel, 48 h
In assay [1] the test system is CAKI-1.
The test system of assay [2] is DMS-114.
The test system of assay [3] is HCT-116.
Assay [4] deals with HCT-15.
Assay [5] deals with HOP-62.
For assay [6], the system named is HT-29.
The subject of assay [7] is MOLT-4.
The subject of assay [8] is NCI-H23.
Assay [9] concerns NCI-H460.
In assay [10] the test system is OVCAR-3.
The subject of assay [11] is SF-268.
In assay [12] the test system is SW-620.
Assay [13] deals with U-251.
Assay [14] relates to UACC-62.
The subject of assay [15] is UO-31.
In assay [16] the test system is NCI-H226.
Assay [17] concerns SK-OV-3.
Assay [18] has as its system Hs-578T.
Assay [19] relates to MCF7.
Assay [20] concerns MDA-MB-231.

SMILES strings stand for the structures.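 Assay format: 96-well plates, 48-hour exposure. At the GI50, growth is halved.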 Activity calls are given as the source filed them. No stated cut-off is given here; in the data, active = GI50 up to about 1.1 µM and inactive = higher.

A word on the GI50: it is the concentration that inhibits growth by half.

In the case of `CCCC/C=C1\CCC(C)(CN(C)C)C1=O` (stereo not given), the GI50 in assay [1] is > 100 µM (inactive); in [2], > 100 µM (inactive); in assay [3] it was > 100 µM (inactive); in [4] it was more than 100 µM; in [5], > 100 µM (inactive); in [6], > 100 µM (inactive). Moreover, the GI50 in [7], in assay [8], in assay [9], in assay [10], in [11] and in assay [12] was > 100 µM (inactive) in each case. For the same compound, the GI50 in [13], in assay [14] and in assay [15] was > 100 µM (inactive) throughout.

`Cc1c(C)c2cc3c(=O)ccoc3c(C)c2oc1=O`: the GI50 in [2] was 48.3 µM (inactive); in assay [4] it was more than 100 µM; in [5], > 100 µM (inactive); in [7], 20.9 µM (inactive); in assay [16] it was 29.8 µM (inactive); in assay [8], > 100 µM (inactive). The GI50 in assay [9] is > 100 µM (inactive); in assay [10] it was > 100 µM (inactive); in assay [11], 71.3 µM (inactive); in assay [17], 57.1 µM (inactive); in assay [12], > 100 µM (inactive); in [13], > 100 µM (inactive). Besides, the GI50 in [14] was 21.9 µM (inactive); in assay [15], 24.4 µM (inactive).

On to `CCCCCCCCCCCCCCCCOC(=O)c1cc(O)cc(C(=O)OCCCCCCCCCCCCCCCC)c1`, for which the GI50 was > 100 µM (inactive) in assay [1]; > 100 µM (inactive) in assay [2]; > 100 µM (inactive) in assay [3]; more than 100 µM in assay [4]; > 100 µM (inactive) in assay [6]; > 100 µM (inactive) in [7]. For the same compound, the GI50 in [16], in assay [8], in [9], in assay [10], in assay [11] and in assay [17] was > 100 µM (inactive) in each case. For the same compound, the GI50 in assay [12], in assay [13], in [14] and in [15] was > 100 µM (inactive) throughout.

On to `CC(C)S(=O)(=O)ON1C(=O)c2ccc([N+](=O)[O-])cc2C1=O`, for which the GI50 is > 100 µM (inactive) in assay [1]; > 100 µM (inactive) in assay [2]; > 100 µM (inactive) in [3]; more than 100 µM in assay [4]; > 100 µM (inactive) in [5]; > 100 µM (inactive) in assay [6]. Also, the GI50 in assay [16], in [8], in assay [9], in [10], in assay [11] and in [17] was > 100 µM (inactive) throughout. In addition, the GI50 in [12], in assay [13], in assay [14] and in assay [15] was > 100 µM (inactive) in each case.

For the compound `C#CC(O)/C=C/CCCCCCC#CC/C=C\CC#CCCCCCC/C=C/C(O)C#C` (stereo not given), the GI50 in [1] is 2.29 µM (inactive); in assay [3], 1.57 µM (inactive); in assay [4], 2.55 µM; in assay [5] it was 2.1 µM (inactive); in assay [6], 2.06 µM (inactive); in assay [18], 5.9 µM (inactive). The GI50 in assay [19] was 10.8 µM (inactive); in assay [20] it was 2.99 µM (inactive); in assay [7], 0.111 µM (active); in assay [16], 5.32 µM (inactive); in assay [8], 0.701 µM (active); in assay [9], 4.35 µM (inactive). The GI50 in assay [10] was 2.7 µM (inactive); in assay [11], 2.96 µM (inactive); in [17] it was 18 µM (inactive); in [12] it was 2.35 µM (inactive); in assay [13], 12.4 µM (inactive); in assay [14], 2.64 µM (inactive). Also, in assay [15], the 50% growth inhibitory concentration (GI50) is 0.264 µM (active).
